Among the data in ChEMBL document CHEMBL1137440, “Kinesin spindle protein (KSP) inhibitors. Part 6: Design and synthesis of 3,5-diaryl-4,5-dihydropyrazole amides as potent inhibitors of the mitotic kinesin KSP” (Bioorg Med Chem Lett, 2007) are Activity, Cp and PPB values, retold here.

For assay [1], the species on record is Canis familiaris. Description: Induction of drug-induced QTc prolongation in dog cardiovascular model at 40 uM. The assay is classed as functional, organism-based. Particulars: Canis lupus familiaris, Heart.
The test system of assay [2] is A2780. Kind of assay: Mitotic arrest in A2780 cells bearing mouse at 3 mg/kg after 22 hrs by phospho-Histone immunohistochemistry assay. The assay is classed as functional, organism-based. The arrangement: dose 3 mg/kg.
In assay [3] the test system is Plasma. Description: Drug level in A2780 cell bearing mouse plasma at 3 mg/kg, po. The arrangement: dose 3 mg/kg. The assay is classed as functional, organism-based.
In assay [4] the test system is Plasma. Kind of assay: Drug level in A2780 cells bearing mouse plasma, po. In kind it is functional.
For assay [5], the species on record is Canis familiaris. Kind of assay: Induction of drug-induced QTc prolongation in dog cardiovascular model at less than 10 uM. In kind it is functional, organism-based. The following applies: Canis lupus familiaris; Heart.
Assay [6] has as its system Plasma. Description: Protein binding in mouse plasma. In kind it is functional, cell-free.
For assay [7], the system named is Plasma. Description: Protein binding in human plasma. The assay is classed as functional, cell-free.

The source made the active and inactive calls. The rule behind the calls is not given here.

Turning to `CC(=O)N1N=C(c2cc(F)ccc2F)C[C@@]1(C[C@H](F)CN)c1ccccc1`, the result in assay [1] was inactive. In assay [2], the outcome was Active. The Cp in assay [3] was 38 nM.
In assay [4], `CC(=O)N1CCN(CCC[C@@]2(c3ccccc3)CC(c3cc(F)ccc3F)=NN2C(C)=O)CC1` registered a Cp of 56 nM. Moreover, the outcome in assay [5] was Active. Also, the PPB in assay [6] stood at 92%; in assay [7], 91%.
